Consider two molecules from paper PMC12679356 (RSC Advances, 2025).

Assay [1] has as its system MCF-7 breast cancer cells. The settings on record: read-out: IC50 MCF-7; literature hybrids 5-7 and 5-FU; cited from earlier work.
The subject of a further assay is MDA-MB-231. The assay is described as follows: MTT cytotoxicity assay on MDA-MB-231. It counts as cell-based. Background: Tetrazolium assays rely on reduction of a dye to a coloured formazan, in cell work by metabolically active cells.
The test system of another assay is Caco-2. As to the kind of experiment: MTT cytotoxicity assay on Caco-2. It counts as cell-based. The conditions noted are these: Homo sapiens, Caco-2, read-out: IC50 Caco-2.
The subject of a further assay is HEK-293. The assay is described as follows: MTT cytotoxicity assay on non-cancerous HEK-293. It counts as cell-based. The conditions noted are these: Homo sapiens, HEK293, read-out: IC50 HEK-293.

SMILES strings stand for the structures. Values after ≈ are worked out from the molar mass of the structure shown.

With `O=c1[nH]cc(F)c(=O)[nH]1` [Compound 5-FU, 5-FU], in assay [1], the IC50 is 12.4 µM.

Regarding `Cc1ccc(CNC(=O)Cn2cc(CSc3nc4ccccc4[nH]3)nn2)cc1` [Compound 11], the IC50 was found to be 68.3 ± 3.1 µg/mL (≈ 174 µM) in the assay with MDA-MB-231 (Homo sapiens, MDA-MB-231, read-out: IC50 MDA-MB-231); 63.8 ± 1.09 µg/mL (≈ 163 µM) with Caco-2; 63.4 ± 2.5 µg/mL (≈ 162 µM) with HEK-293. The “SI HEK/MDA” value in the assay with MDA-MB-231 (selectivity index, HEK-293 vs MDA-MB-231) is given as 0.93.

One may read the IC50 as the point on the concentration scale where inhibition reaches its midpoint.
